According to patent publication US20250213550A1, “COMPOUNDS AND METHODS FOR TREATING INFLAMMATORY BOWEL DISEASE” (Gilead Sciences, Inc., priority 2023, published 2025):
Where two headings read alike, the source gives them in different places.

Tests used:
[1] = Drug-drug interaction: Compound 1 on PK of combined oral contraceptive DRSP/EE; type: in vivo, human; conditions: co-administration of Compound 1 (600 mg) with DRSP/EE, relative to DRSP/EE alone
Procedure: A Phase 1, open-label, single-center, multiple-cohort study was conducted to evaluate the effect of a mixed OATP/P-gp inhibitor (cyclosporine A; CsA) or food on the PK of Compound 1, the effect of Compound 1 on the PK of midazolam (MDZ), the effect of Compound 1 on the PK of OATP/CYP3A/BCRP substrates using atorvastatin (ATV), pravastatin (PRA), and rosuvastatin (ROS), and the effect of Compound 1 on the PK of a representative combined oral contraceptive (drospirenone/ethinyl estradiol; DRSP/EE), in healthy participants. 70 participants ages 18 to 55 years (inclusive) and having BMI of ≥18.0 kg/m^2 and ≤30.0 kg/m^2 were enrolled. For Cohorts 1-3, there were an approximately even distribution of healthy participants assigned male at birth and nonpregnant, nonlactating participants assigned female at birth. Cohort 4 included only healthy, nonpregnant, nonlactating participants assigned female at birth.
Participants in Cohort 4 received treatment sequence OPQR.
Treatment O: Single dose of DRSP 3 mg and EE 0.02 mg, administered under fasting condition on Day 1 of Period 1 […]
Concentrations of Compound 1 and its active metabolites Compound A and Compound B, MDZ and its metabolite 1-OH-MDZ, ATV and its metabolite 2-OH-ATV, PRA, ROS, DRSP, and EE in plasma PK samples were determined by validated high performance liquid chromatography tandem mass spectrometry (LC-MS/MS) bioanalytical methods.

[2] = Phase 1 single- and multiple-ascending dose study: plasma PK of Compound A after oral Compound 1; type: in vivo, human; conditions: for Ctau / AUCtau/D / Cmax/D / AUC: Day 10, mean; for AUCtau/D / Cmax/D: dose-normalized; for half-life / AUC / Tmax: human, plasma
Procedure: A 2-part, single- and multiple-ascending dose sponsor-unblinded Phase 1 study was conducted for Cohorts 1-9 to evaluate the safety, tolerability, PK, and PD of Compound 1 in healthy participants. Up to 72 participants ages 18 to 55 years (inclusive) and having body mass index (BMI) of ≥19.0 and ≤30.0 kg/m^2 were enrolled. For Cohort 9, participants were homozygous for the UGT1A1*28 allele (UGT1A1 *28/*28: TA7/TA7).
Part A proceeded in 4 staggered, dose-escalation cohorts. Within each of Cohorts 1-4, 8 unique participants were randomized 3:1 to receive blinded Compound 1 (N=6) or placebo-to-match (PTM) (N=2). The dose of Compound 1 for all adaptive cohorts (Cohorts 2, 3, and 4) was determined based on cumulative safety and available PK data through a minimum of Day 3 from previous cohorts, not exceeding the specified upper dose limit (Table 2). Dosing in Part A was completed prior to proceeding with Part B.
Part B proceeded in up to 5 staggered, dose-escalation cohorts. Within each of Cohorts 5-9, 8 unique participants were randomized 3:1 to receive blinded Compound 1 (N=6) or PTM (N=2). Start of multiple dosing within Adaptive Cohort 5 was determined by review of the cumulative safety and PK data through at least Day 3 of the final cohort in Part A. Initiation of subsequent multiple-dose cohorts at a higher dose (Cohorts 6, 7, 8, and 9) was determined based on cumulative safety through at least Day 10 from all participants enrolled in the previous multiple-dose cohort (Table 3).
For Cohorts 1-4, plasma PK sampling occurred relative to the dose of Compound 1 at the following time points: • Day 1: 0 (pre-dose, ≤5 min prior to dosing), 0.25, 0.5, 1, 1.5, 2, 3, 4, 6, 8, 12, 18, 24, 36, 48, 72, 96, and 120 hours post-dose A single plasma PK sample was collected at early termination (ET), if applicable.
For Cohorts 5-9, plasma PK sampling occurred relative to the dose of Compound 1 at the following time points: • Day 1 (Cohorts 8 and 9): pre-dose (≤5 min before dose), 0.5, 1, 2, 3, 4, 6, 8, 12, 13, 14, 15, 16, 18, and 20 hours post-dose (relative to AM dose) • Day 10 (Cohorts 5-9): pre-dose (≤5 min before dose), 0.25, 0.5, 1, 1.5, 2, 3, 4, 6, 8, 12, 18, 24, 36, 48, 72, 96, and 120 hours post-dose • A pre-dose sample was collected on Days 2, 4, 7, and 8. A single plasma PK sample was collected at early termination (ET), if applicable.
Concentrations of Compound 1, and its respective metabolites Compound A and Compound B in plasma PK samples were determined by validated high-performance liquid chromatography-tandem mass spectrometry (LC-MS/MS) bioanalytical methods.
Pharmacokinetic parameters for Compound 1 and its metabolites were determined from the plasma concentration-time profiles for all evaluable participants.
Compound 1 was administered under fasting conditions following an overnight fast (no food or drinks except water) for at least 10 hours; food could be consumed 4 hours after administration of Compound 1.

[3] = Cohort 5, 75 mg Cpd 1 QD fasted
[4] = Cohort 6, 300 mg Cpd 1 QD fasted
[5] = Cohort 7, 900 mg Cpd 1 QD fasted

With `Cn1ccc2c([C@@H](c3cn(C45CC(C4)C5)nn3)N(C(=O)OCOP(=O)(O)O)c3cc(Cl)c4ncc(C#N)c(NCC(C)(C)C)c4c3)cccc2c1=O` [Compound 1] the “change in AUCinf of DRSP” value [1] was “no change” and the “change in Cmax of EE” value [1] was “no change”.
In the case of `Cn1ccc2c([C@H](Nc3cc(Cl)c4ncc(C#N)c(NCC(C)(C)C)c4c3)c3cn(C45CC(C4)C5)nn3)cccc2c1=O` [Compound A], the Ctau [2, 3] was 0.273 µg/mL, the Ctau [2, 4] was 1.07 µg/mL and the Ctau [2, 5] was 2.33 µg/mL. The “time to steady-state exposures” value ([2]; Compound 1 once-daily dosing) was at most 7 days, the AUCtau/D [2, 3] was 0.141 µg·h/mL and the Cmax/D [2, 3] was 13.1 ng/mL. The AUCtau/D [2, 4] was 0.125 µg·h/mL, the Cmax/D [2, 4] was 10.6 ng/mL and the AUCtau/D [2, 5] was 0.0691 µg·h/mL. It also gave a Cmax/D [2, 5] of 5.5 ng/mL, a half-life ([2]; oral, 75 mg, Cohort 5, 75 mg Cpd 1 QD fasted, Day 10, median, read-out: t1/2 (converted)) of 21.8 h and a half-life ([2]; oral, 300 mg, Cohort 6, 300 mg Cpd 1 QD fasted, Day 10, median, read-out: t1/2 (converted)) of 19 h. The half-life ([2]; oral, 900 mg, Cohort 7, 900 mg Cpd 1 QD fasted, Day 10, median, read-out: t1/2 (converted)) was 28.5 h, the half-life ([2]; oral, across Compound 1 dose levels, single or multiple doses, read-out: median t1/2) was 20 to 30 h and the AUC ([2]; oral, Cohort 5, 75 mg Cpd 1 QD fasted) was 10500 ng·h/mL. The Tmax ([2]; oral, Cohort 5, 75 mg Cpd 1 QD fasted, Day 10, median, read-out: Tmax) was 3 h, the AUC ([2]; oral, Cohort 6, 300 mg Cpd 1 QD fasted) was 37400 ng·h/mL and the Tmax ([2]; oral, Cohort 6, 300 mg Cpd 1 QD fasted, Day 10, median, read-out: Tmax) was 4 h. It also gave an AUC ([2]; oral, Cohort 7, 900 mg Cpd 1 QD fasted) of 62200 ng·h/mL, a Tmax ([2]; oral, Cohort 7, 900 mg Cpd 1 QD fasted, Day 10, median, read-out: Tmax) of 3.01 h and a Tmax ([2]; oral, multiple doses of Compound 1 (75 to 900 mg QD, 600 mg BID), fasted, range across cohorts, read-out: median Tmax) of 2 to 4 h. The half-life ([2]; oral, multiple doses of Compound 1 (75 to 900 mg QD, 600 mg BID), fasted, range across cohorts, read-out: median t1/2) was 19 to 28 h, the half-life ([2]; po, single oral doses of Compound 1 (300 to 1500 mg), fasted, range across doses, read-out: median terminal elimination t1/2) was 22 to 29 h and the Tmax ([2]; single oral doses of Compound 1 (300 to 1500 mg), fasted, range across doses, read-out: median Tmax) was 3 to 4 h. For the same compound, the “exposure (AUC) accumulation” value ([2]; multiple dosing of 600 mg Compound 1 once daily) was “approximately 2 fold”, the “steady-state plasma exposure (Cmax and AUC)” value ([2]; multiple once-daily doses of Compound 1, 75 to 900 mg, fasted) was “increased in a dose-dependent manner” and the “plasma exposure (Cmax, AUCinf, and AUClast)” value ([2]; single oral doses of Compound 1, 300 to 900 mg dose range, fasted) was “increased in a dose-dependent manner”.
